Reference: publication PMC10539501 (Nature Communications, 2023)
Like-named read-outs stand apart in the source and are kept apart here. Non-standard residues stand in square brackets, D forms with d. Residues, ends and D or L forms follow the SMILES beside them.

What was measured:
in vitro [1] = settings: both, human, plasma
Method: (§1) Blood was freshly drawn from three healthy adults, two male and one person of 26–28 year old. […] The plasma was separated by centrifugation. […] For checking metabolic stability, the required volume of plasma was pre-incubated at 37 °C prior to the experiment for 2 min, followed by spiking with the peptides. At different time points, plasma was aliquoted. The supernatant was separated and used for RP-HPLC quantification. Rapid Equilibrium Dialysis (RED) assay was performed to assess the plasma protein binding of the peptides following the supplier’s protocol.

pepsin [2] = molecular target: T1, pepsin (Sus scrofa, UniProt P00791); assay: in vitro; settings: simulated gastric fluid, pH 1.2
Method: (§2) A stability assessment of the peptides was done in simulated gastric (SGF) and intestinal (SIF) fluids and human liver microsomes. The degradation kinetics of the aliquoted samples at desired time points were analyzed through RP-HPLC.

[3] = type: physicochemical
Text: Since reduced solvation of S also contributes to the lipophilicity of the thioamidated peptides, we sought to estimate the global desolvation of the macrocyclic peptides, which is affected by solvation of both N(H) and C(S). […] Thus, we evaluated the desolvation potential of the cyclic peptides by determining the distribution coefficients in heptane-ethylene glycol (logDh/e), a solvent system that provides an experimental estimate of desolvation or hydrogen bond potential[38].

[4] = HDX of amide protons by NMR in DMSO-d6:D2O (8:2); settings: HDX by NMR, 20% D2O in DMSO-d6
Method: (§3) As hydrogen bonding and solvation of NH groups play an important role in the permeability of macrocycles, we determined the solvent accessibility of individual amide protons in 10 and 10a–10f by hydrogen-deuterium exchange (HDX) through NMR spectroscopy (Figs. 2a–c).
(§4) Spectra were recorded on a Bruker AV 500 MHz spectrometer at 25 °C.

pepsin [5] = molecular target: T1, pepsin; settings: pH 1.2
Method: as §2

in vitro [6] = settings: pig, simulated intestinal fluid
Method: We next assessed the stability of the macrocyclic peptides in Simulated Intestinal Fluid (SIF)[42], comprising of pancreatin, which is a mixture of several proteases produced by the exocrine cells of the porcine pancreas.
as §2

[7] = rat, in vivo
Method: (§5) All animals were housed individually in the animal facility at Anthem Biosciences Pvt. Ltd and were acclimatized for 3 days. All animals were fasted overnight before dosing, whereas access to water was provided ad libitum. Peptides were administered orally and via s.c. route and blood samples were collected at different time points through a jugular vein catheter.

in vitro [8] = settings: human, microsomes
Method: as §2

in vitro [9] = settings: both, human, plasma; remark: listed apart in the source
Method: as §1

[10] = Retention in hydrophobic C18 column by HPLC; settings: Supplementary Fig 3d, logD7.4 vs tR
[11] = HDX of amide protons by NMR in CDCl3:CD3OD (8:2)
Method: as §3, §4

in vivo = settings: male, Wistar, rat
Method: as §5

[12] = type: physicochemical; remark: listed apart in the source
[13] = blood plasma, cited from earlier work
Text: Next, we sought to assess the in vivo efficacy of the thioamidated somatostatin analogs post s.c. administration. Somatostatin, first known to inhibit the release of growth hormone, induces its biological effects by interacting with five of its G-protein-coupled receptor subtypes SSTR1-SSTR5[50]. Out of which, the SSTR2 and SSTR5 have gained significant attention due to their role in mediating the inhibition of growth hormone and antiproliferative effects of somatostatin on tumor growth. […]

[14] = 20% CD3OD in CDCl3, % remaining after 24 hours

T1 sequence (P00791 60-385): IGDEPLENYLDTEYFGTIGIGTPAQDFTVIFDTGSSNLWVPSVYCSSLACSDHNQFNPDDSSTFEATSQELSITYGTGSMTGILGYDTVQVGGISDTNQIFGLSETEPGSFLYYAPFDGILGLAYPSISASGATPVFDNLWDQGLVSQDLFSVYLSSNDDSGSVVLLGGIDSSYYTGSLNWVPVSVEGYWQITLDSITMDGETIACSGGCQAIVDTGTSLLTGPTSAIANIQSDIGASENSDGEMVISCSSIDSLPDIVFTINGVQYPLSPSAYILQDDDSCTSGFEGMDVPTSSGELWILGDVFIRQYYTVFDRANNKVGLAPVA
Method for human liver microsomes: as §2

For CC(C)C[C@@H]1NC(=O)[C@H](Cc2ccc(O)cc2)NC(=O)[C@H]2CCCN2C(=O)[C@H](CC(C)C)NC(=O)[C@H](CC(C)C)NC(=O)[C@@H](CC(C)C)NC1=O [compound 10, cyclo(-D-Leu^1-Leu-Leu-D-Pro-Tyr-Leu^6-)] (cyclo(LL[dP]YL[dL])), which half-life (in vitro [1]) is on record?
Its half-life is 8 h.

And the remaining at 1 h (in vitro [1])?
Its remaining at 1 h is 86%.

And the remaining at 3 h (in vitro [1])?
Its remaining at 3 h is 80%.

And the remaining at 5 h (in vitro [1])?
Its remaining at 5 h is 67%.

What about the remaining at 7 h (in vitro [1]) of the same molecule?
The remaining at 7 h was 59%.

And the remaining at 9 h (in vitro [1])?
Its remaining at 9 h is 43%.

And the remaining at 12 h (in vitro [1])?
Its remaining at 12 h is 37%.

What about the remaining at 24 h (in vitro [1]) of the same molecule?
The remaining at 24 h was 24%.

What about the remaining at 36 h (in vitro [1]) of the same molecule?
The remaining at 36 h was 19%.

What about the remaining at 48 h (in vitro [1]) of the same molecule?
Its remaining at 48 h is 13%.

What about the remaining at 60 h (in vitro [1]) of the same molecule?
Its remaining at 60 h is 4%.

What about the remaining at 72 h (in vitro [1]) of the same molecule?
Its remaining at 72 h is 4%.

What about the half-life (pepsin [2]) of the same molecule?
Its half-life is 0.2 h.

And the remaining at 5 min (pepsin [2])?
Its remaining at 5 min is 67%.

What about the remaining at 10 min (pepsin [2]) of the same molecule?
The remaining at 10 min was 54%.

What about the remaining at 20 min (pepsin [2]) of the same molecule?
Its remaining at 20 min is 40%.

And the remaining at 0.5 h (pepsin [2])?
Its remaining at 0.5 h is 34%.

And the remaining at 1 h (pepsin [2])?
The remaining at 1 h was 22%.

What about the remaining at 2 h (pepsin [2]) of the same molecule?
The remaining at 2 h was 16%.

And the remaining at 4 h (pepsin [2])?
The remaining at 4 h was 10%.

What about the remaining at 8 h (pepsin [2]) of the same molecule?
The remaining at 8 h was 6%.

And the remaining at 12 h (pepsin [2])?
Its remaining at 12 h is 2%.

And the remaining at 24 h (pepsin [2])?
Its remaining at 24 h is 0%.

And the logD heptane ethylene glycol [3]?
The logD heptane ethylene glycol was 0.46.

What about the “t1/2 in human blood plasma” value of the same molecule?
Its value is 8 h.

What about the “Half-life of D-Leu1 amide proton (HDX)” value [4] of the same molecule?
Its value is 0.25 h.

What about the “Half-life of Leu2 amide proton (HDX)” value [4] of the same molecule?
The value was 1.52 h.

What about the “Half-life of Leu3 amide proton (HDX)” value [4] of the same molecule?
Its value is 3.28 h.

What about the “Half-life of Leu6 amide proton (HDX)” value [4] of the same molecule?
Its value is 7.83 h.

What about the “Half-life of Tyr5 amide proton (HDX)” value [4] of the same molecule?
Its value is 0.817 h.

And the “Half lives (SGF) set1” value (pepsin [5])?
Its value is 10 min.

And the half-life (in vitro [6])?
The half-life was 0.267 h.

And the remaining at 10 min (in vitro [6])?
The remaining at 10 min was 57.1%.

What about the remaining at 0.5 h (in vitro [6]) of the same molecule?
Its remaining at 0.5 h is 39%.

What about the remaining at 1 h (in vitro [6]) of the same molecule?
The remaining at 1 h was 30.7%.

What about the remaining at 2 h (in vitro [6]) of the same molecule?
The remaining at 2 h was 13.4%.

What about the remaining at 4 h (in vitro [6]) of the same molecule?
The remaining at 4 h was 12%.

And the remaining at 8 h (in vitro [6])?
Its remaining at 8 h is 7.3%.

And the remaining at 12 h (in vitro [6])?
The remaining at 12 h was 5.5%.

And the remaining at 24 h (in vitro [6])?
The remaining at 24 h was 3%.

And the “%F” value [7]?
The value was 0%.

What about the “time over which the peptide is detectable in plasma” value ([7]; po, 10 mg/kg) of the same molecule?
The value was at most 1 h.

What about the remaining at 5 min (in vitro [8]) of the same molecule?
The remaining at 5 min was 55%.

And the remaining at 10 min (in vitro [8])?
The remaining at 10 min was 40%.

What about the remaining at 20 min (in vitro [8]) of the same molecule?
The remaining at 20 min was 33%.

And the remaining at 0.5 h (in vitro [8])?
The remaining at 0.5 h was 29%.

And the remaining at 0.75 h (in vitro [8])?
The remaining at 0.75 h was 22%.

And the remaining at 1 h (in vitro [8])?
The remaining at 1 h was 14%.

And the fraction unbound (in vitro [9])?
Its fraction unbound is 0.51.

What about the tR [10] of the same molecule?
Its tR is 9.3 min.

And the “Half-life of D-Leu1 amide proton (HDX)” value ([11]; 20% CD3OD in CDCl3)?
Its value is 7.25 h.

And the “Half-life of Leu2 amide proton (HDX)” value ([11]; 20% CD3OD in CDCl3)?
Its value is 2 min.

And the “Half-life of Leu3 amide proton (HDX)” value ([11]; 20% CD3OD in CDCl3)?
The value was over 24 h.

And the “Half-life of Leu6 amide proton (HDX)” value ([11]; 20% CD3OD in CDCl3)?
Its value is over 24 h.

And the “Half-life of Tyr5 amide proton (HDX)” value ([11]; 20% CD3OD in CDCl3)?
Its value is 1.75 h.

What about the “% intact NH, Leu3” value [11, 14] of the same molecule?
Its value is 72%.

What about the “% intact NH, Leu6” value [11, 14] of the same molecule?
The value was 90%.

What about the Half lives (human liver microsomes) of the same molecule?
The Half lives was 6.7.

What about the “Intrinsic clearance (CLint) Avg” value (human liver microsomes; human) of the same molecule?
The value was 225 µL/min/mg.

And the AUC(0-t) (in vivo; iv)?
Its AUC(0-t) is 548 ng·h/mL.

And the Cmax (in vivo; iv)?
Its Cmax is 1050 ng/mL.

What about the MRT (in vivo; iv) of the same molecule?
The MRT was 1.6 h.

What about the Vd (in vivo; iv) of the same molecule?
Its Vd is 4.1 L/kg.

What about the clearance (in vivo; iv) of the same molecule?
The clearance was 28.4 mL/min/kg.

What about the AUC(0-t) (in vivo; po, 10 mg/kg) of the same molecule?
Its AUC(0-t) is 0.9 ng·h/mL.

What about the Cmax (in vivo; po, 10 mg/kg) of the same molecule?
Its Cmax is 3.5 ng/mL.

And the MRT (in vivo; po, 10 mg/kg)?
The MRT was 0.2 h.

And the “% solubility” value [12]?
Its value is 97%.

What does the source list for C[C@H](N)C(=O)NCC(=O)N[C@H]1CSSC[C@@H](C(=O)O)NC(=O)[C@H](CO)NC(=O)[C@H]([C@@H](C)O)NC(=O)[C@H](Cc2ccccc2)NC(=O)[C@H]([C@@H](C)O)NC(=O)[C@H](CCCCN)NC(=O)[C@H](Cc2c[nH]c3ccccc23)NC(=O)[C@H](Cc2ccccc2)NC(=O)[C@H](Cc2ccccc2)NC(=O)[C@H](CC(N)=O)NC(=O)[C@H](CCCCN)NC1=O [SRIF-14]?
plasma half-life [13]: 3 min; plasma half-life ([13]; listed as native somatostatin): ~ 3 min
